These results are taken from US12692235B2, “Fused ring compound and application thereof” (WUHAN LL SCIENCE AND TECHNOLOGY DEVELOPMENT CO., LTD., priority 2019, dated 2026).

The structures appear in SMILES notation. Some results are limits rather than exact numbers.

This test addresses T1, hP2X4 (human purinergic P2X receptor subtype 4) (Homo sapiens, UniProt Q99571).
T1 sequence (Q99571 1-404 isoform Q99571-2): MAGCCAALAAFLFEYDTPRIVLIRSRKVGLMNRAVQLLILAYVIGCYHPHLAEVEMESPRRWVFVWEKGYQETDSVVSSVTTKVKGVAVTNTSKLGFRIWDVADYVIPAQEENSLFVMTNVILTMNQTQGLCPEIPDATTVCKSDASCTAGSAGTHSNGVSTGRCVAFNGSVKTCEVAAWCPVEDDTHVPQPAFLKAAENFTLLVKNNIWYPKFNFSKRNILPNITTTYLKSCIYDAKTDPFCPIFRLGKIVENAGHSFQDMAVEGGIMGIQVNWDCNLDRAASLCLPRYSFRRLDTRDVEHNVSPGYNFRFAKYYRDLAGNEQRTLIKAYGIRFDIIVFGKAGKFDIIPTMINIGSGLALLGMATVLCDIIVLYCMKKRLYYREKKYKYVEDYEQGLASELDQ
The settings on record: P2X4 IC50 (nM), HEK293 cells stably expressing hP2X4; agonist BZ-ATP 2.5 μM; FLIPR calcium.
Description: Cells at 400,000 cells/mL were seeded into a 384-well plate (10,000 cells/well) 18-24 h prior to the FLIPR experiment and then incubated overnight in a cell incubator. […] Each well was added with 20 μL of 0.5×Calcium 6 fluorescent dye (Molecular Devices, R8190) and then the cells were subjected to dye-loading incubation at 37° C. for 1.5 h. Each well was added with 10 μL of respective test compound (dissolved in DMSO at a concentration of 10 mM and serially diluted with buffer) or vehicle and the mixture was equilibrated for 30 min at room temperature.
For the molecule `COCCOc1cc2c(S(N)(=O)=O)cc(NC(=O)Cc3ccccc3Cl)cc2cn1` [Compound 84, 2-(2-chlorophenyl)-N-(3-(2-methoxyethoxy)-5-sulfamoylisoquinolin-7-yl)acetamide], the IC50 lay in the range of 50 to 200 nM.
`NS(=O)(=O)c1cc(NC(=O)Cc2ccccc2Cl)cc2cnc(N3CCCCC3)cc12` [Compound 77, 2-(2-chlorophenyl)-N-(3-(piperidin-1-yl)-5-sulfamoylisoquinolin-7-yl)acetamide]: the 50% inhibitory concentration (IC50) fell in the range of 50 to 200 nM.
For the molecule `NS(=O)(=O)c1cc(NC(=O)Cc2ccccc2Cl)cc2c(OCCC3CC3)nccc12` [Compound 17, 2-(2-chlorophenyl)-N-(1-(2-cyclopropylethoxy)-5-sulfamoylisoquinolin-7-yl)acetamide], the IC50 is 50 to 200 nM.
For the molecule `NS(=O)(=O)c1cc(NC(=O)Cc2ccccc2Cl)cc2c(C(F)F)nccc12` [Compound 25, 2-(2-chlorophenyl)-N-(1-(difluoromethyl)-5-sulfamoylisoquinolin-7-yl)acetamide], the IC50 was < 10 nM.
With `NS(=O)(=O)c1cc(NC(=O)Cc2ccccc2Cl)cc2cnc(F)cc12` [Compound 7, 2-(2-chlorophenyl)-N-(3-fluoro-5-sulfamoylisoquinolin-7-yl)acetamide], the IC50 was in the range of 50 to 200 nM.
On to `NS(=O)(=O)c1cc(NC(=O)Cc2ccccc2Cl)cc2c1CCN(C(=O)C(F)(F)F)C2` [Compound 114, 2-(2-chlorophenyl)-N-(5-sulfamoyl-2-(2,2,2-trifluoroacetyl)-1,2,3,4-tetrahydroisoquinolin-7-yl) acetamide], for which the IC50 was in the range of 10 to 50 nM.
`COCCOc1ccc2c(S(N)(=O)=O)cc(NC(=O)Cc3ccccc3Cl)cc2n1` [Compound 74, 2-(2-chlorophenyl)-N-(2-(2-methoxyethoxy)-5-sulfamoylquinolin-7-yl)acetamide]: the IC50 lay within 50 to 200 nM.
The same measure for `COc1nccc2c(S(N)(=O)=O)cc(NC(=O)Cc3cc(F)c(F)cc3Cl)cc12` [Compound 27, 2-(2-chloro-4,5-difluorophenyl)-N-(1-methoxy-5-sulfamoylisoquinolin-7-yl)acetamide]: < 10 nM; for `CCN1CCc2c(cc(NC(=O)Cc3ccccc3Cl)cc2S(N)(=O)=O)C1` [Compound 109, 2-(2-chlorophenyl)-N-(2-ethyl-5-sulfamoyl-1,2,3,4-tetrahydroisoquinolin-7-yl)acetamide]: 200 to 5000 nM.
For the molecule `NS(=O)(=O)c1cc(NC(=O)Cc2ccccc2Cl)cc2ccc(F)nc12` [Compound 38, 2-(2-chlorophenyl)-N-(2-fluoro-8-sulfamoylquinolin-6-yl)acetamide], the half-maximal inhibitory concentration (IC50) lay in the range of 50 to 200 nM.
Regarding `NS(=O)(=O)c1cc(NC(=O)Cc2ccccc2Cl)cc2ncccc12` [Compound 4, 2-(2-chlorophenyl)-N-(5-sulfamoylquinolin-7-yl)acetamide], the IC50 was in the range of 10 to 50 nM.
In the case of `CCOc1nccc2c(S(N)(=O)=O)cc(NC(=O)Cc3ccccc3Cl)cc12` [Compound 8, 2-(2-chlorophenyl)-N-(1-ethoxy-5-sulfamoylisoquinolin-7-yl)acetamide], the concentration for half-maximal inhibition (IC50) is 10 to 50 nM.
On to `NS(=O)(=O)c1cc(NC(=O)Cc2ccccc2Cl)cc2c1CCN(C1COC1)C2` [Compound 123, 2-(2-chlorophenyl)-N-(2-(oxetan-3-yl)-5-sulfamoyl-1,2,3,4-tetrahydroisoquinolin-7-yl)acetamide], for which the IC50 fell in the range of 200 to 5000 nM.
Consider `NS(=O)(=O)c1cc(NC(=O)Cc2ccccc2Cl)cc2c(OCF)nccc12` [Compound 61, 2-(2-chlorophenyl)-N-(1-(fluoromethoxy)-5-sulfamoylisoquinolin-7-yl)acetamide], for which the IC50 fell in the range of 50 to 200 nM.
The same measure for `NS(=O)(=O)c1cc(NC(=O)Cc2ccccc2Cl)cc2cnc(-n3ccnc3)cc12` [Compound 22, N-(3-(1H-imidazol-1-yl)-5-sulfamoylisoquinolin-7-yl)-2-(2-chlorophenyl)acetamide]: 10 to 50 nM; for `CC(=O)N1CCc2c(cc(NC(=O)Cc3ccccc3Cl)cc2S(N)(=O)=O)C1` [Compound 102, N-(2-acetyl-5-sulfamoyl-1,2,3,4-tetrahydroisoquinolin-7-yl)-2-(2-chlorophenyl)acetamide]: 10 to 50 nM; for `CN1CCc2c(cc(NC(=O)Cc3ccccc3Cl)cc2S(N)(=O)=O)C1` [Compound 112, 2-(2-chlorophenyl)-N-(2-methyl-5-sulfamoyl-1,2,3,4-tetrahydroisoquinolin-7-yl)acetamide]: 10 to 50 nM.
As for `COc1cc2c(S(N)(=O)=O)cc(NC(=O)Cc3ccccc3Cl)cc2cn1` [Compound 75, 2-(2-chlorophenyl)-N-(3-methoxy-5-sulfamoylisoquinolin-7-yl)acetamide], the IC50 was 50 to 200 nM.
The same measure for `Nc1ncc2c(S(N)(=O)=O)cc(NC(=O)Cc3ccccc3Cl)cc2n1` [Compound 39, N-(2-amino-5-sulfamoylquinazolin-7-yl)-2-(2-chlorophenyl)acetamide]: 200 to 5000 nM; for `N#Cc1cc2c(S(N)(=O)=O)cc(NC(=O)Cc3ccccc3Cl)cc2cn1` [Compound 20, 2-(2-chlorophenyl)-N-(3-cyano-5-sulfamoylisoquinolin-7-yl)acetamide]: 10 to 50 nM; for `COc1ccc2c(S(N)(=O)=O)cc(NC(=O)Cc3ccccc3Cl)cc2n1` [Compound 58, 2-(2-chlorophenyl)-N-(2-methoxy-5-sulfamoylquinolin-7-yl)acetamide]: 50 to 200 nM.
On to `COc1nccc2c(S(N)(=O)=O)cc(NC(=O)Cc3ccccc3OC(F)(F)F)cc12` [Compound 96, N-(1-methoxy-5-sulfamoylisoquinolin-7-yl)-2-(2-(trifluoromethoxy)phenyl)acetamide], for which the IC50 was 200 to 5000 nM.
`NS(=O)(=O)c1cc(NC(=O)Cc2ccccc2Cl)cc2nc(N3CCCC3)ccc12` [Compound 89, (2-chlorophenyl)-N-(2-(pyrrolidin-1-yl)-5-sulfamoylquinolin-7-yl)acetamide]: the IC50 is 200 to 5000 nM.
`CC(C)COc1nccc2c(S(N)(=O)=O)cc(NC(=O)Cc3ccccc3Cl)cc12` [Compound 14, 2-(2-chlorophenyl)-N-(1-isobutoxy-5-sulfamoylisoquinolin-7-yl)acetamide]: the IC50 fell in the range of 10 to 50 nM.
In the case of `Nc1nccc2c(S(N)(=O)=O)cc(NC(=O)Cc3ccccc3Cl)cc12` [Compound 51, N-(1-amino-5-sulfamoylisoquinolin-7-yl)-2-(2-chlorophenyl)acetamide], the half-inhibitory concentration (IC50) lay in the range of 200 to 5000 nM.
For `NS(=O)(=O)c1cc(NC(=O)Cc2ccccc2Cl)cc2c1CCN(C(Cl)Cl)C2` [Compound 115, 2-(2-chlorophenyl)-N-(2-(dichloromethyl)-sulfamoyl-1,2,3,4-tetrahydroisoquinolin-7-yl)acetamide], the 50% inhibitory concentration (IC50) fell in the range of 200 to 5000 nM.
Regarding `NS(=O)(=O)c1cc(NC(=O)Cc2ccccc2Cl)cc2c1CCN(C1CC1)C2` [Compound 103, 2-(2-chlorophenyl)-N-(2-cyclopropyl-5-sulfamoyl-1,2,3,4-tetrahydroisoquinolin-7-yl)acetamide], the IC50 fell in the range of 10 to 50 nM.
As for `CN1CCN(c2cc3c(S(N)(=O)=O)cc(NC(=O)Cc4ccccc4Cl)cc3cn2)CC1=O` [Compound 80, 2-(2-chlorophenyl)-N-(3-(4-methyl-3-carbonylpiperazin-1-yl)-5-sulfamoylisoquinolin-7-yl)acetamide], the IC50 was in the range of 50 to 200 nM.
In the case of `COc1ccc(F)cc1CC(=O)Nc1cc(S(N)(=O)=O)c2ccnc(OC)c2c1` [Compound 95, 2-(5-fluoro-2-methoxyphenyl)-N-(1-methoxy-5-sulfamoylisoquinolin-7-yl)acetamide], the concentration for half-maximal inhibition (IC50) fell in the range of 200 to 5000 nM.

Usually IC50 stands for the concentration at which inhibition is half-maximal.
